Source: ChEMBL document CHEMBL1201862, “PubChem BioAssay data set” (2004)
The source made the active and inactive calls.

Tests used:
[1] = molecular target: Glycogen synthase kinase-3 beta (Homo sapiens, UniProt P49841); assay: inhibition of human GSK3B activity – biochemical, microfluidics, dry powder samples, set 2, dose response (AID 623989); type: functional
[2] = molecular target: T1, Glycogen synthase kinase-3 alpha (Homo sapiens, UniProt P49840); assay: GSK3A enzyme blockers, homolog specificity check – biochemical, microfluidics, dry powder samples, set 2, selectivity assay for GSK3beta inhibitor project, dose response (AID 623978); type: functional
[3] = molecular target: Cyclin-dependent kinase 5/CDK5 activator 1 (Homo sapiens, UniProt Q00535); assay: inhibitors of human CDK5 activity – biochemical, microfluidic mobility shift, dry powder, set 2, selectivity assay for GSK3beta inhibitor project, dose response (AID 623979); type: functional
[4] = molecular target: T2, DNA repair protein RAD52 homolog (Homo sapiens, UniProt P43351); type: functional, biochemical
T2 sequence (P43351 whole entry): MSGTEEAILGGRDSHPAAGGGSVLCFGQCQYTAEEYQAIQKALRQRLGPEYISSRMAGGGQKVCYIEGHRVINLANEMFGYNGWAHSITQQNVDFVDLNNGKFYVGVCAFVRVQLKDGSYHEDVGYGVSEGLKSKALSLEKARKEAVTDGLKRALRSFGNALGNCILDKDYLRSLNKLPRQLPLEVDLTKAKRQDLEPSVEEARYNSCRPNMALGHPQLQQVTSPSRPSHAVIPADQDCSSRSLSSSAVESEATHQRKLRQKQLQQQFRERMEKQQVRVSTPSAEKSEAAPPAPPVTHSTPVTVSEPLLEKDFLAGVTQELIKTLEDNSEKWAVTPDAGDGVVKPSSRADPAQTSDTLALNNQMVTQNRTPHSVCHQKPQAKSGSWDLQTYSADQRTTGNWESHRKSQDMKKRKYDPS

[5] = molecular target: T3, Ubiquitin-conjugating enzyme E2 N (Homo sapiens, UniProt P61088); type: functional;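 further: Dose-response confirmation in a TR-FRET assay detecting UBC13-driven polyubiquitin chain formation, inhibition measured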
T3 sequence (P61088 whole entry): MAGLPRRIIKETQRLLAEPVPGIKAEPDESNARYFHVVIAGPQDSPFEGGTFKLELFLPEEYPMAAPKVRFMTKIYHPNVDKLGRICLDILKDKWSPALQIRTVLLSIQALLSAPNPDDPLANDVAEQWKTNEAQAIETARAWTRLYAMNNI

[6] = molecular target: T4, Multidrug resistance protein CDR2 (Candida albicans (strain SC5314 / ATCC MYA-2876) (Yeast), UniProt P78595); assay: inhibition of Nile Red efflux via Candida CDR2 – S. cerevisiae AD1-8u, singleplex, Cherry Pick1 hits, dose response (AID 588604); type: functional
[7] = molecular target: T4, Multidrug resistance protein CDR2; assay: blockers of Nile Red efflux by Candida CDR2 – S. cerevisiae AD1-8u, singleplex, Cherry Pick2 set, dose response (AID 623994); type: functional; conditions: read-out: EC50_MICROM
[8] = molecular target: T5, Benomyl/methotrexate resistance protein (Candida albicans, UniProt P28873); assay: Candida albicans Mdr1 pump inhibition curves – singleplex, Cherry Pick1 hits, dose response (AID 588608); type: functional
[9] = molecular target: T6, Multidrug resistance protein CDR1 (Candida albicans, UniProt P43071); assay: inhibition of Nile Red efflux via Candida CDR1 – S. cerevisiae AD1-8u, singleplex, Cherry Pick1 hits, dose response (AID 588606); type: functional
[10] = molecular target: T6, Multidrug resistance protein CDR1; assay: Candida albicans Cdr1 pump inhibition curves – singleplex, Cherry Pick2 set, dose response (AID 623996); type: functional; conditions: read-out: EC50_MICROM
[11] = molecular target: T5, Benomyl/methotrexate resistance protein; assay: Candida albicans Mdr1 pump blockade titration – singleplex, Cherry Pick2 set, dose response (AID 623992); type: functional; conditions: read-out: EC50_MICROM
[12] = Vero cell cytotoxicity, dose response, cytotoxicity control for M. tuberculosis growth inhibitor project, Vero cells, purified and synthesized compounds, set 5 (AID 504909); type: functional; conditions: Mycobacterium tuberculosis
[13] = THP-1 cell cytotoxicity, cytotoxicity control, set 4 (AID 504911); type: functional; conditions: Mycobacterium tuberculosis
[14] = Vero cell cytotoxicity, dose response, cytotoxicity control for M. tuberculosis growth inhibitor project, Vero cells, purified and synthesized compounds, set 4 (AID 504854); type: functional; conditions: Mycobacterium tuberculosis
[15] = molecular target: Protein kinase C theta type (Homo sapiens, UniProt Q04759); assay: Navigating the Kinome. Panel member name: PRKCQ; type: functional
[16] = molecular target: Ribosomal protein S6 kinase alpha-3 (Homo sapiens, UniProt P51812); type: functional;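 further: measured within a kinome-wide profiling panel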
[17] = molecular target: Dual specificity mitogen-activated protein kinase kinase 1 (Homo sapiens, UniProt Q02750); assay: Navigating the Kinome. Panel member name: MAP2K1; type: functional
[18] = molecular target: Tyrosine-protein kinase JAK2 (Homo sapiens, UniProt O60674); type: functional;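 further: JAK2 tested as one member of a kinase panel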
[19] = molecular target: 5'-AMP-activated protein kinase catalytic subunit alpha-1 (Homo sapiens, UniProt Q13131); type: functional
[20] = molecular target: ALK tyrosine kinase receptor (Homo sapiens, UniProt Q9UM73); type: functional;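 further: ALK tested as one member of a kinase panel screen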
[21] = molecular target: Proto-oncogene tyrosine-protein kinase receptor Ret (Homo sapiens, UniProt P07949); type: functional;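 further: measured within a kinome-wide profiling panel, RET as the panel member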
[22] = molecular target: Tyrosine-protein kinase receptor TYRO3 (Homo sapiens, UniProt Q06418); type: functional;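 further: TYRO3 value obtained as one member of a kinome-wide profiling panel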
[23] = molecular target: Tyrosine-protein kinase Lck (Homo sapiens, UniProt P06239); type: functional;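 further: lck was assayed as one member of a kinase panel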
[24] = molecular target: Death-associated protein kinase 3 (Homo sapiens, UniProt O43293); type: functional;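 further: measured as one member of a kinome-wide profiling panel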
Activin receptor type-1 = Activin receptor type-1 (Homo sapiens, UniProt Q04771); assay: Navigating the Kinome. Panel member name: ACVR1; type: functional
[25] = molecular target: Mitogen-activated protein kinase 8 (Homo sapiens, UniProt P45983); type: functional;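 further: value comes from one member of a kinome-wide kinase profiling panel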
[26] = molecular target: Serine/threonine-protein kinase pim-1 (Homo sapiens, UniProt P11309); type: functional
Aurora kinase A = Aurora kinase A (Homo sapiens, UniProt O14965); type: functional;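 further: value from the Navigating the Kinome kinase panel profiling, panel entry STK6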
[27] = molecular target: Serine/threonine-protein kinase PAK 4 (Homo sapiens, UniProt O96013); type: functional;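 further: value obtained within a kinome profiling panel in which PAK4 was one of the panel members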
[28] = molecular target: Casein kinase I isoform alpha (Homo sapiens, UniProt P48729); type: functional
[29] = molecular target: Tyrosine-protein kinase JAK3 (Homo sapiens, UniProt P52333); type: functional
LIM domain kinase 1 = LIM domain kinase 1 (Homo sapiens, UniProt P53667); assay: Navigating the Kinome. Panel member name: LIMK1; type: functional
[30] = molecular target: Serine/threonine-protein kinase TAO1 (Homo sapiens, UniProt Q7L7X3); type: functional
[31] = molecular target: T1, Glycogen synthase kinase-3 alpha; type: functional
[32] = molecular target: Mitogen-activated protein kinase kinase kinase kinase 2 (Homo sapiens, UniProt Q12851); type: functional;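 further: measured as one member of a kinome-wide kinase panel, with MAP4K2 as the panel entry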
[33] = molecular target: Hepatocyte growth factor receptor (Homo sapiens, UniProt P08581); type: functional;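 further: kinase panel profiling across the kinome, with MET as the panel member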
Activated CDC42 kinase 1 = Activated CDC42 kinase 1 (Homo sapiens, UniProt Q07912); assay: Navigating the Kinome. Panel member name: ACK1; type: functional
[34] = molecular target: Platelet-derived growth factor receptor beta (Homo sapiens, UniProt P09619); type: functional;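 further: value comes from a kinome panel, with PDGFRB tested as one panel member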
[35] = molecular target: Receptor-type tyrosine-protein kinase FLT3 (Homo sapiens, UniProt P36888); type: functional;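 further: FLT3 was tested as one member of a kinome-wide kinase panel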
[36] = molecular target: Serine/threonine-protein kinase Chk1 (Homo sapiens, UniProt O14757); type: functional;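 further: measured as one member of a kinome-wide kinase profiling panel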
[37] = molecular target: Vascular endothelial growth factor receptor 2 (Homo sapiens, UniProt P35968); type: functional
[38] = molecular target: G protein-coupled receptor kinase 5 (Homo sapiens, UniProt P34947); assay: Navigating the Kinome. Panel member name: GPRK5; type: functional
[39] = molecular target: Cyclin-dependent kinase 5 (Homo sapiens, UniProt Q00535); type: functional;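 further: CDK5 measured as one member of a kinase profiling panel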
[40] = molecular target: Insulin-like growth factor 1 receptor (Homo sapiens, UniProt P08069); assay: Navigating the Kinome. Panel member name: IGF1R; type: functional
[41] = molecular target: Dual specificity tyrosine-phosphorylation-regulated kinase 1B (Homo sapiens, UniProt Q9Y463); assay: Navigating the Kinome. Panel member name: DYRK1B; type: functional
[42] = molecular target: cAMP-dependent protein kinase catalytic subunit PRKX (Homo sapiens, UniProt P51817); type: functional
Focal adhesion kinase 1 = Focal adhesion kinase 1 (Homo sapiens, UniProt Q05397); type: functional;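 further: measured as one member of a kinome panel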
[43] = molecular target: Leucine-rich repeat serine/threonine-protein kinase 2 (Homo sapiens, UniProt Q5S007); type: functional;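 further: value from a broad kinome-wide panel profiling study in which LRRK2 was one of the kinases tested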
Aurora kinase B = Aurora kinase B (Homo sapiens, UniProt Q96GD4); type: functional
[44] = molecular target: Rho-associated protein kinase 1 (Homo sapiens, UniProt Q13464); type: functional;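 further: measured within a broad kinome-wide panel profiling many kinases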
[45] = molecular target: Tyrosine-protein kinase Fyn (Homo sapiens, UniProt P06241); type: functional
[46] = molecular target: Serine/threonine-protein kinase Nek2 (Homo sapiens, UniProt P51955); type: functional
[47] = molecular target: Cyclin-dependent kinase 8 (Homo sapiens, UniProt P49336); assay: Navigating the Kinome. Panel member name: CDK8; type: functional
[48] = molecular target: Cyclin-dependent kinase 7 (Homo sapiens, UniProt P50613); type: functional;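 further: value comes from a kinome-wide kinase profiling panel in which CDK7 is one member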
[49] = molecular target: Cyclin-dependent kinase 9 (Homo sapiens, UniProt P50750); type: functional;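 further: value from the CDK9 entry of a kinome-spanning kinase panel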
[50] = molecular target: BDNF/NT-3 growth factors receptor (Homo sapiens, UniProt Q16620); type: functional;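 further: NTRK2 measured as one member of a broad kinome-wide kinase profiling panel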
[51] = molecular target: Dual specificity protein kinase CLK4 (Homo sapiens, UniProt Q9HAZ1); type: functional
[52] = molecular target: Macrophage colony-stimulating factor 1 receptor (Homo sapiens, UniProt P07333); type: functional;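 further: value comes from the Navigating the Kinome screening panel, CSF1R member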
[53] = molecular target: Dual specificity mitogen-activated protein kinase kinase 2 (Homo sapiens, UniProt P36507); assay: Navigating the Kinome. Panel member name: MAP2K2; type: functional
[54] = molecular target: Dual specificity tyrosine-phosphorylation-regulated kinase 1A (Homo sapiens, UniProt Q13627); type: functional;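 further: measured against DYRK1A as one member of a broad kinome profiling panel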
[55] = molecular target: Inhibitor of nuclear factor kappa-B kinase subunit epsilon (Homo sapiens, UniProt Q14164); assay: Navigating the Kinome. Panel member name: IKBKE; type: functional
[56] = molecular target: Leukocyte tyrosine kinase receptor (Homo sapiens, UniProt P29376); assay: Navigating the Kinome. Panel member name: LTK; type: functional
[57] = molecular target: Melanin-concentrating hormone receptor 1 (Homo sapiens, UniProt Q99705); assay: Late-stage fluorescence-based counterscreen for antagonists of the G-protein coupled receptor 7 (GPR7): cell-based dose response assay to identify antagonists of the melanin-concentrating hormone receptor 1 (MCHR1) Set 6.; type: functional
[58] = molecular target: Neuropeptides B/W receptor type 1 (Homo sapiens, UniProt P48145); assay: human NPBW1 receptor blockade, IC50 – cell-based, fluorescence, dose response, set 6, late-stage follow-up (AID 588583); type: functional
[59] = molecular target: DNA dC->dU-editing enzyme APOBEC-3A (Homo sapiens, UniProt P31941); assay: SAR analysis of small molecule inhibitors of APOBEC3A DNA Deaminase via a fluorescence-based single-stranded DNA deaminase assay - Set 2.; type: functional; conditions: read-out: IC50_Mean
[60] = molecular target: DNA dC->dU-editing enzyme APOBEC-3G (Homo sapiens, UniProt Q9HC16); assay: SAR analysis of small molecule inhibitors of APOBEC3G DNA Deaminase via a fluorescence-based single-stranded DNA deaminase assay - Set 2.; type: functional; conditions: read-out: IC50_Mean

T4 sequence (P78595 whole entry): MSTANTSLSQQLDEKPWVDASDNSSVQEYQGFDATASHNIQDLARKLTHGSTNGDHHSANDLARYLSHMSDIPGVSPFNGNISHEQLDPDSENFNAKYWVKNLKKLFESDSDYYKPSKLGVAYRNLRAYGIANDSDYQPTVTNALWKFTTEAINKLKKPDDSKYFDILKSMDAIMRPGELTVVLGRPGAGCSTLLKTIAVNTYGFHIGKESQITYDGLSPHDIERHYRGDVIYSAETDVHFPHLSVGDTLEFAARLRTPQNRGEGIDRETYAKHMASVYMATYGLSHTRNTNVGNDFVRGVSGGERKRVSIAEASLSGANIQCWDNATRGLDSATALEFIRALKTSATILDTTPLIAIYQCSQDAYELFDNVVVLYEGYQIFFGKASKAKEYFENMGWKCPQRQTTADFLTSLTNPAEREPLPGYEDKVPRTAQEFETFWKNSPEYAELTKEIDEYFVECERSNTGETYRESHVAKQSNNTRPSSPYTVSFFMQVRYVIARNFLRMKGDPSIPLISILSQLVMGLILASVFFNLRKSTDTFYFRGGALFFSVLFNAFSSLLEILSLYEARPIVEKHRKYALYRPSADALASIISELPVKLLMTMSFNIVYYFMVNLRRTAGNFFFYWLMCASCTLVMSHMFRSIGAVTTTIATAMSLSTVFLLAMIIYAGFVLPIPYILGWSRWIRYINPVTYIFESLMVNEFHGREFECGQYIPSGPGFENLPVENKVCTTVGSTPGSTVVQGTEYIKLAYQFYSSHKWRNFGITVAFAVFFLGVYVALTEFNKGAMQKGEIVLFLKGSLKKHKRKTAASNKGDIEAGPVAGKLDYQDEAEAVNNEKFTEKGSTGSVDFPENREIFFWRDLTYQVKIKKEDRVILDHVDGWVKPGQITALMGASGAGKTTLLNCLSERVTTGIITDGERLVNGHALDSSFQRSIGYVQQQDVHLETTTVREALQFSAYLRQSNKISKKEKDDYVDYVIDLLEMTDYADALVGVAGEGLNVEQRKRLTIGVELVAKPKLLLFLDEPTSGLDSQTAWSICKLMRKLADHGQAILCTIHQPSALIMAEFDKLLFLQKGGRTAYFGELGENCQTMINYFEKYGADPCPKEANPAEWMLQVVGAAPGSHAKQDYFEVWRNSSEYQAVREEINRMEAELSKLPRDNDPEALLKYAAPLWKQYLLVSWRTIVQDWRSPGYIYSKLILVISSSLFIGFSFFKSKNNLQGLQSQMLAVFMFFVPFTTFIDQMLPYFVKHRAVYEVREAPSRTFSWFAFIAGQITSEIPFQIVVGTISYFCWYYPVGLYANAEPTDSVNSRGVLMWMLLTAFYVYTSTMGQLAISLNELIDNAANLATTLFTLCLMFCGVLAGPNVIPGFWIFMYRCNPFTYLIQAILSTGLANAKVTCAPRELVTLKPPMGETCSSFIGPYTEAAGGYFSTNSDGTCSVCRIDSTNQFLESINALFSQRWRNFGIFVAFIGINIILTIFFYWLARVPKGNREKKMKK
T1 sequence (P49840 whole entry): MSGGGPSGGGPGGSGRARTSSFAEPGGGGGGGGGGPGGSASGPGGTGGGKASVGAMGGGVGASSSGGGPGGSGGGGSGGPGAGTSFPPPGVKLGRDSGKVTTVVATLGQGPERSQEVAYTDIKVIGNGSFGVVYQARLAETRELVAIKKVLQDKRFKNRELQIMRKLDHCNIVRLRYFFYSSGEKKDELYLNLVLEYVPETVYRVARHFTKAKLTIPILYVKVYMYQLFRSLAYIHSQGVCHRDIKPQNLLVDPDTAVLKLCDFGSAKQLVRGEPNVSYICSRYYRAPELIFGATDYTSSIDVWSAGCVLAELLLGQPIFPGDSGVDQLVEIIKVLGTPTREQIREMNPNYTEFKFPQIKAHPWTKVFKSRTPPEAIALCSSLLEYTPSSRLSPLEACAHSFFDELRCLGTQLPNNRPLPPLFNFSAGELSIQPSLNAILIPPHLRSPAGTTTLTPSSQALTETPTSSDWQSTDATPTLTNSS
T5 sequence (P28873 whole entry): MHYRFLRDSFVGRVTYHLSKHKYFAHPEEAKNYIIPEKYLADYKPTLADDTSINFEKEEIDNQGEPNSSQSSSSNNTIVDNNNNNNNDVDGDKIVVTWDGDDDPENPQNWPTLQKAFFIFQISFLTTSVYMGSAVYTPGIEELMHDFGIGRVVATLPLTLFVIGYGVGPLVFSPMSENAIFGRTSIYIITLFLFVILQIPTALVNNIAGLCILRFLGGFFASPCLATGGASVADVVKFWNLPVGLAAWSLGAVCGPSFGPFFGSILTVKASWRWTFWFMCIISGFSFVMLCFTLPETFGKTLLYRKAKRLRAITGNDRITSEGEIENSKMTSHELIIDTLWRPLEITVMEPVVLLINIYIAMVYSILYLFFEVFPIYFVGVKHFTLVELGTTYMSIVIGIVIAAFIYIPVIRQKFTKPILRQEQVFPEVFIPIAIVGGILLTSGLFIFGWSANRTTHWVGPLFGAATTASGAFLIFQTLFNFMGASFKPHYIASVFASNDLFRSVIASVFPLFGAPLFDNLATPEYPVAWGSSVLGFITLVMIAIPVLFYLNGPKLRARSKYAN
T6 sequence (P43071 whole entry, looked up): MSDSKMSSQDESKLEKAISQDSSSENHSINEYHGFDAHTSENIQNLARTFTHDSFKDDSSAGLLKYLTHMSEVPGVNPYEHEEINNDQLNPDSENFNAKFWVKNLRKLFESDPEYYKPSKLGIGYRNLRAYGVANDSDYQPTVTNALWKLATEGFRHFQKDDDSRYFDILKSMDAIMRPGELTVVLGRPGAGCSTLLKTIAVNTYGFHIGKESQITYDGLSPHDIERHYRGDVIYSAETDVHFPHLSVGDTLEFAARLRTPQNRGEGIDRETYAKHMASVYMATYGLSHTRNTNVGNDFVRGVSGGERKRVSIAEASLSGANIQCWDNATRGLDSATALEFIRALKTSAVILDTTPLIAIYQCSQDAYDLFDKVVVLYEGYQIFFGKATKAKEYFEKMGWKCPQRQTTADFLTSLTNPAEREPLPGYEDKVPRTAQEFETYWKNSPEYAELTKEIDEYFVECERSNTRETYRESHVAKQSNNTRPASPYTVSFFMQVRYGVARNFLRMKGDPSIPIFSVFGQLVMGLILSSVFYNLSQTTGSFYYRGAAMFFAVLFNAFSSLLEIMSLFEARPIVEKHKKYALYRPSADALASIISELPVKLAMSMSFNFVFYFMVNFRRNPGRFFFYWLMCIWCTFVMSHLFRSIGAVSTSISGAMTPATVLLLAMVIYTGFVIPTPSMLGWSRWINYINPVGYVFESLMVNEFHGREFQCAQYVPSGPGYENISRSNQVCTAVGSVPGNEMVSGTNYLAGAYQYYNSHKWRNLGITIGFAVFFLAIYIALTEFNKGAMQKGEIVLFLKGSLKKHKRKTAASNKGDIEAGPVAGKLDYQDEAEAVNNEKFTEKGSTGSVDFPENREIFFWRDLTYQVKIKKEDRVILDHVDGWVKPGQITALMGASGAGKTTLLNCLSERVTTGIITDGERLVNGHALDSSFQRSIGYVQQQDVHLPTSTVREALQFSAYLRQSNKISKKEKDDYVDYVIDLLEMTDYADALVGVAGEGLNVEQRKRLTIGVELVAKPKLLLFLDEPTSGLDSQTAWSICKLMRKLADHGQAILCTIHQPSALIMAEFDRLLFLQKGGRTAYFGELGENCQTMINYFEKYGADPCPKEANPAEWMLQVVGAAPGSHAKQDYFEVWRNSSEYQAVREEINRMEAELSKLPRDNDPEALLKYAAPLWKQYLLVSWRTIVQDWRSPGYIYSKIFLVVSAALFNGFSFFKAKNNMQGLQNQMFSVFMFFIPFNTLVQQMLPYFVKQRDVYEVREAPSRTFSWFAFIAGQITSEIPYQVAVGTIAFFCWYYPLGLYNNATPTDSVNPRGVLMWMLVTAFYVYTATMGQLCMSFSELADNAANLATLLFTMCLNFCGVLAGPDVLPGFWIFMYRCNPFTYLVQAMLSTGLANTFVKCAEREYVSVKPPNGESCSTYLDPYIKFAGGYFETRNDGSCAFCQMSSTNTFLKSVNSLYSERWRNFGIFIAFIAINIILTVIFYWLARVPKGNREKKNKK
Sequence of Serine/threonine-protein kinase Chk1 (O14757 whole entry): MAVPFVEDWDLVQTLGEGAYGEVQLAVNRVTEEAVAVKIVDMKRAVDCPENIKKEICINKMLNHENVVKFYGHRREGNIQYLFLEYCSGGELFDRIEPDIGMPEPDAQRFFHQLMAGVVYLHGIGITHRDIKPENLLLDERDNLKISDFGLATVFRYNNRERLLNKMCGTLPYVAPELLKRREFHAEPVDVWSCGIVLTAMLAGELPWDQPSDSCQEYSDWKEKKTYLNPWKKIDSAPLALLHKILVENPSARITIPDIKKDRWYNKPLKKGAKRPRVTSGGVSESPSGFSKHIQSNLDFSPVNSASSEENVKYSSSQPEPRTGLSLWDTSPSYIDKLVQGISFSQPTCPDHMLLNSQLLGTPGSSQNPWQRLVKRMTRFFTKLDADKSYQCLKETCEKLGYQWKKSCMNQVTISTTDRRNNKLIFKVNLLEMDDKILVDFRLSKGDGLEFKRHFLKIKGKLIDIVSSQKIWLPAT
Sequence of 5'-AMP-activated protein kinase catalytic subunit alpha-1 (Q13131 whole entry): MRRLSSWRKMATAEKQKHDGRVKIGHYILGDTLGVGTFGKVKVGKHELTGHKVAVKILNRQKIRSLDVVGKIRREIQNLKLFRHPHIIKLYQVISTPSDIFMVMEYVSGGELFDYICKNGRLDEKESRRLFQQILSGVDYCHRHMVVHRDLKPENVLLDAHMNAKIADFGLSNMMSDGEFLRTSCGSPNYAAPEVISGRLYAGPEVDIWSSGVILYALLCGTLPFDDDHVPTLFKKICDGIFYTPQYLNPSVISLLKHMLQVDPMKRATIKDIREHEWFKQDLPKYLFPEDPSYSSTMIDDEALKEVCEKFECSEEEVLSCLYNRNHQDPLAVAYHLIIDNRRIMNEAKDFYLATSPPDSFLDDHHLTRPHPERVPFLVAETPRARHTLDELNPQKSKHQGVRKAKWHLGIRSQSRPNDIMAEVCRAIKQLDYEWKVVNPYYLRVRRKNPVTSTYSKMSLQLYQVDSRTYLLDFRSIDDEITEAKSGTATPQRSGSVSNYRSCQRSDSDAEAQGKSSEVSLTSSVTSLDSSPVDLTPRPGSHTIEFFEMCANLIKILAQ

COc1cccc(/C=C2/Sc3ccc(C(=O)NCCCN4CCCC4)cc3NC2=O)c1
AC50 [1]: 4460 nM (active) | AC50 [2]: 38900 nM (active) | AC50 [3]: 7910 nM (active) | AC50 [4]: 4470 nM (active)

NC1=NC[C@@H](Cc2ccc(O)cc2)N1CCCCC1CCCCC1
IC50 [5]: > 20000 nM (inactive) | EC50 [6]: 27300 nM (active) | EC50 [7]: 16300 nM (active)

Cc1noc(C)c1C(=O)N1CCC2(CC1)Oc1ccc(F)cc1C(=O)C21CC(c2ccc(Cl)cc2)=NO1 (stereo unspecified)
EC50 [8]: 15600 nM (active) | EC50 [9]: 11500 nM (active) | EC50 [10]: 26800 nM (active) | EC50 [11]: 16900 nM (active)

Oc1nc(SCc2ccccc2Cl)nc2c1CCCC2
CC50 [12]: > 100000 nM (active) | CC50 [13]: > 100000 nM (active) | CC50 [14]: > 100000 nM (active)

NC(=O)c1ccc2nc(-c3ccc([N+](=O)[O-])o3)cn2c1
Ki [15]: 251 nM (active) | Ki [16]: 631 nM (active) | Ki [17]: 1580 nM (active) | Ki [18]: 1260 nM (active) | Ki [19]: 158 nM (active) | Ki [20]: 631 nM (active) | Ki [21]: 316 nM (active) | Ki [22]: 100 nM (active) | Ki [23]: > 6310 nM (inactive) | Ki [24]: 251 nM (active) | Ki (Activin receptor type-1): 200 nM (active) | Ki [25]: 1580 nM (active) | Ki [26]: 631 nM (active) | Ki (Aurora kinase A): 126 nM (active) | Ki [27]: 794 nM (active) | Ki [28]: 126 nM (active) | Ki [29]: 794 nM (active) | Ki (LIM domain kinase 1): 158 nM (active) | Ki [30]: 1260 nM (active) | Ki [31]: 1000 nM (active) | Ki [32]: 251 nM (active) | Ki [33]: 50.1 nM (active) | Ki (Activated CDC42 kinase 1): 251 nM (active) | Ki [34]: 1000 nM (active) | Ki [35]: 2510 nM (active) | Ki [36]: 50.1 nM (active) | Ki [37]: > 2510 nM (inactive) | Ki [38]: 158 nM (active) | Ki [39]: 126 nM (active) | Ki [40]: > 2510 nM (inactive) | Ki [41]: 79.4 nM (active) | Ki [42]: 631 nM (active) | Ki (Focal adhesion kinase 1): 316 nM (active) | Ki [43]: 126 nM (active) | Ki (Aurora kinase B): 251 nM (active) | Ki [44]: 1000 nM (active) | Ki [45]: 2000 nM (active) | Ki [46]: 63.1 nM (active) | Ki [47]: 126 nM (active) | Ki [48]: 631 nM (active) | Ki [49]: 39.8 nM (active) | Ki [50]: > 3980 nM (inactive) | Ki [51]: 20 nM (active) | Ki [52]: 1260 nM (active) | Ki [53]: 1000 nM (active) | Ki [54]: 31.6 nM (active) | Ki [55]: 126 nM (active) | Ki [56]: 79.4 nM (active)

O=c1c(-c2ccc(F)cc2)c(Br)cnn1Cc1cccc2ccccc12
IC50 [57]: 2240 nM (active) | IC50 [58]: 2240 nM (active)

CCc1nc2sc3c(c2c2nnc(SC)n12)CCCC3
IC50 [59]: > 99000 nM (inactive) | IC50 [60]: > 99000 nM (inactive)
